These results are taken from ChEMBL document CHEMBL4004849, “Tetrazolylmethyl quinolines: Design, docking studies, synthesis, anticancer and antifungal analyses” (2017).

Common to all, as to assay type: functional
One assay relates to IGROV-1. Briefly: Growth inhibition of human IGROV1 cells at 10^-5 M incubated for 48 hrs by sulforhodamine B assay relative to control. The settings on record: for inhibition of growth at 10 µM: IGROV-1, 48 h, read-out: GI.
A further assay relates to RXF 393. Briefly: Growth inhibition of human RXF393 cells at 10^-5 M incubated for 48 hrs by sulforhodamine B assay relative to control. The settings on record: for inhibition of growth at 10 µM: RXF 393, 48 h, read-out: GI.
A further assay concerns DU-145. Briefly: Growth inhibition of human DU145 cells at 10^-5 M incubated for 48 hrs by sulforhodamine B assay relative to control. The settings on record: for inhibition of growth at 10 µM: DU-145, 48 h, read-out: GI.
A further assay has as its system MOLT-4. Briefly: Growth inhibition of human MOLT4 cells at 10^-5 M incubated for 48 hrs by sulforhodamine B assay relative to control. The settings on record: for inhibition of growth at 10 µM: MOLT-4, 48 h, read-out: GI.
Another assay concerns HT-29. The assay can be described thus: Growth inhibition of human HT-29 cells at 10^-5 M incubated for 48 hrs by sulforhodamine B assay relative to control. The settings on record: for inhibition of growth at 10 µM: HT-29, 48 h, read-out: GI.
The test system of another assay is A549. The assay can be described thus: Growth inhibition of human A549/ATCC cells at 10^-5 M incubated for 48 hrs by sulforhodamine B assay relative to control. The settings on record: for inhibition of growth at 10 µM: A549, 48 h, read-out: GI.
The test system of the next assay is CAKI-1. Briefly: Growth inhibition of human Caki1 cells at 10^-5 M incubated for 48 hrs by sulforhodamine B assay relative to control. The settings on record: for inhibition of growth at 10 µM: CAKI-1, 48 h, read-out: GI.
The next assay deals with HCT-116. Briefly: Growth inhibition of human HCT116 cells at 10^-5 M incubated for 48 hrs by sulforhodamine B assay relative to control. The settings on record: for inhibition of growth at 10 µM: HCT-116, 48 h, read-out: GI.
In the next assay the test system is NCI-H226. Briefly: Growth inhibition of human NCI-H226 cells at 10^-5 M incubated for 48 hrs by sulforhodamine B assay relative to control. The settings on record: for inhibition of growth at 10 µM: NCI-H226, 48 h, read-out: GI.
Another assay has as its system SF-268. The assay can be described thus: Growth inhibition of human SF268 cells at 10^-5 M incubated for 48 hrs by sulforhodamine B assay relative to control. The settings on record: for inhibition of growth at 10 µM: SF-268, 48 h, read-out: GI.
The subject of another assay is NCI-H522. The assay can be described thus: Growth inhibition of human NCI-H522 cells at 10^-5 M incubated for 48 hrs by sulforhodamine B assay relative to control. The settings on record: for inhibition of growth at 10 µM: NCI-H522, 48 h, read-out: GI.
The subject of a further assay is U-251. The assay can be described thus: Growth inhibition of human U251 cells at 10^-5 M incubated for 48 hrs by sulforhodamine B assay relative to control. The settings on record: for inhibition of growth at 10 µM: U-251, 48 h, read-out: GI.

Molecules are shown by their SMILES. The source made the active and inactive calls. The calls are words filed in the database; no cut-off is given here.

`COc1ccc2nc(Cl)c(Cn3nnc(Cc4ccccc4)n3)cc2c1`: the inhibition of growth at 10 µM with IGROV-1 amounted to 56.8%; with RXF 393, 39.8%; with DU-145, 38.4%; with MOLT-4, 89.7%; in the assay on HT-29, 72.6%; in the assay with A549, 68.5%. Moreover, the inhibition of growth at 10 µM in the assay on CAKI-1 stood at 56.1%; with HCT-116, 70.8%; with NCI-H226 it was 61%; with SF-268, 48.5%; in the assay with NCI-H522 it was 62%; in the assay with U-251, 46.8%.

Regarding `Clc1nc2ccc(Br)cc2cc1Cn1nnnc1CSc1ccccc1`, the “growth inhibition (GI)” value in the assay on IGROV-1, in the assay with RXF 393, in the assay with DU-145, in the assay on MOLT-4, in the assay with HT-29 and with A549 was “Active” in each case. Also, the “growth inhibition (GI)” value in the assay with CAKI-1, with HCT-116, in the assay with NCI-H226, in the assay with SF-268, in the assay with NCI-H522 and in the assay with U-251 was “Active” each time.

In the case of `Clc1nc2ccc(Br)cc2cc1Cn1nnnc1Cc1ccccc1`, the “growth inhibition (GI)” value in the assay on IGROV-1, in the assay on RXF 393, in the assay on DU-145, in the assay on MOLT-4, with HT-29 and in the assay with A549 was “Active” in each case. Besides, the “growth inhibition (GI)” value in the assay on CAKI-1, in the assay with HCT-116, with NCI-H226, in the assay with SF-268, with NCI-H522 and with U-251 was “Active” throughout.

Take `Cc1ccc2nc(Cl)c(Cn3nnnc3CSc3ccccc3)cc2c1`: the “growth inhibition (GI)” value in the assay on IGROV-1, in the assay on RXF 393, in the assay on DU-145, in the assay on MOLT-4, in the assay on HT-29 and in the assay on A549 was “Active” throughout. Besides, the “growth inhibition (GI)” value with CAKI-1, with HCT-116, in the assay with NCI-H226, with SF-268, in the assay on NCI-H522 and with U-251 was “Active” in each case.

Turning to `Clc1nc2ccccc2cc1Cn1nnc(Cc2ccccc2)n1`, the inhibition of growth at 10 µM in the assay with IGROV-1 stood at 49.1%; in the assay with RXF 393 it was 16.1%; in the assay on DU-145, 24.8%; in the assay with MOLT-4 it was 56.9%; with HT-29 it was 28.4%; in the assay with A549, 46.1%. Moreover, the inhibition of growth at 10 µM was 59.5% in the assay on CAKI-1; 64.9% with HCT-116; 41.8% in the assay on NCI-H226; 34.3% with SF-268; 57.9% in the assay on NCI-H522; 23.7% in the assay on U-251.

As to `COc1ccc2nc(Cl)c(Cn3nnnc3CSc3ccccc3)cc2c1`, the “growth inhibition (GI)” value with IGROV-1, with RXF 393, in the assay with DU-145, with MOLT-4, with HT-29 and in the assay on A549 was “Active” throughout. Besides, the “growth inhibition (GI)” value in the assay with CAKI-1, with HCT-116, with NCI-H226, in the assay on SF-268, with NCI-H522 and in the assay on U-251 was “Active” throughout.

With `Fc1ccc2nc(Cl)c(Cn3nnc(CSc4ccccc4)n3)cc2c1`, the “growth inhibition (GI)” value in the assay on IGROV-1, in the assay with RXF 393, in the assay on DU-145, in the assay with MOLT-4, in the assay with HT-29 and in the assay with A549 was “Active” in each case. Further, the “growth inhibition (GI)” value with CAKI-1, with HCT-116, in the assay with NCI-H226, with SF-268, with NCI-H522 and in the assay with U-251 was “Active” in each case.

`Fc1ccc2nc(Cl)c(Cn3nnnc3Cc3ccccc3)cc2c1`: the “growth inhibition (GI)” value in the assay on IGROV-1, in the assay with RXF 393, in the assay with DU-145, in the assay with MOLT-4, in the assay on HT-29 and with A549 was “Active” throughout. For the same compound, the “growth inhibition (GI)” value in the assay with CAKI-1, with HCT-116, with NCI-H226, with SF-268, in the assay on NCI-H522 and in the assay with U-251 was “Active” throughout.

For `Clc1nc2ccc(Br)cc2cc1Cn1nnc(Cc2ccccc2)n1`, the “growth inhibition (GI)” value in the assay on IGROV-1, in the assay on RXF 393, in the assay on DU-145, in the assay with MOLT-4, in the assay with HT-29 and in the assay with A549 was “Active” each time. Further, the “growth inhibition (GI)” value in the assay with CAKI-1, in the assay with HCT-116, in the assay on NCI-H226, in the assay with SF-268, with NCI-H522 and in the assay with U-251 was “Active” each time.

Consider `Cc1ccc2nc(Cl)c(Cn3nnnc3Cc3ccccc3)cc2c1`, for which the “growth inhibition (GI)” value with IGROV-1, with RXF 393, in the assay with DU-145, with MOLT-4, in the assay on HT-29 and in the assay with A549 was “Active” throughout. For the same compound, the “growth inhibition (GI)” value in the assay with CAKI-1, in the assay on HCT-116, in the assay with NCI-H226, with SF-268, with NCI-H522 and in the assay on U-251 was “Active” throughout.

On to `Cc1ccc2nc(Cl)c(Cn3nnc(CSc4ccccc4)n3)cc2c1`, for which the “growth inhibition (GI)” value in the assay with IGROV-1, with RXF 393, in the assay with DU-145, in the assay with MOLT-4, in the assay with HT-29 and with A549 was “Active” throughout. Further, the “growth inhibition (GI)” value with CAKI-1, in the assay on HCT-116, with NCI-H226, with SF-268, in the assay with NCI-H522 and in the assay on U-251 was “Active” throughout.
